# Values quoted from earlier work, collected in patent publication EP0706556B1, “CLEANING AND DI[…]” (Henkel-Ecolab GmbH & Co. OHG, priority 1993, dated 1995).
structure (smiles),measurement,setting,value
C=O [Formaldehyd],"Konzentration, bei der Augenreizungen auftreten können","exposed persons, certain individuals","≥ 0,4 ppm"
same,"Konzentration, die Lungenödeme verursacht","inhalation, humans",50 ppm
same,"Konzentration, die Tränenfluß verursacht","inhalation, humans","≥ 0,1 ppm"
